Measurements published in BindingDB's records for patent US20250313563 (The Broad Institute, 2025).
Values joined by “and” are separate entries in the source; they are usually repeats but may differ in a detail not shown here. Identical values can stand only once.

Key:
[1] = target: Glycogen synthase kinase-3 beta (Homo sapiens, UniProt P49841); test: TR-FRET Assay
In short: (§1)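 Compound was preincubated 30 min in assay buffer before the kinase reaction, which was quenched with EDTA. Phosphorylation was detected by TR-FRET after adding a solution of 40 nM streptavidin-d2 and 2 nM Tb-labelled anti-pSer641 antibody.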

[2] = target: Glycogen synthase kinase-3 alpha (Homo sapiens, UniProt P49840); test: TR-FRET Assay
In short: as §1

Glycogen synthase kinase-3 alpha, sequence (P49840 whole entry): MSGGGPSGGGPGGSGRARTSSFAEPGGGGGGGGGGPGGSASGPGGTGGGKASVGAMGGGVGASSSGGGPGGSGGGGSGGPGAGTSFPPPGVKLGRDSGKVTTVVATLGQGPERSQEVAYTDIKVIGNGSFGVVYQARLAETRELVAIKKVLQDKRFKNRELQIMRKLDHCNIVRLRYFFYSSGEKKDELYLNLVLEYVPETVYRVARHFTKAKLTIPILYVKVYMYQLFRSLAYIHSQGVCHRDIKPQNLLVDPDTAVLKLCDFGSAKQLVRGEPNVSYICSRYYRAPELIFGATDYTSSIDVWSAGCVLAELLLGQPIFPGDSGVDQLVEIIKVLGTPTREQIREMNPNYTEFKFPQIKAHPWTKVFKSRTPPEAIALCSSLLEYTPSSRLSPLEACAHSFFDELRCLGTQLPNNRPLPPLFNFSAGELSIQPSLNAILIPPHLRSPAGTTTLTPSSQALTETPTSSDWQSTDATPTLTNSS
Glycogen synthase kinase-3 beta, sequence (P49841 whole entry): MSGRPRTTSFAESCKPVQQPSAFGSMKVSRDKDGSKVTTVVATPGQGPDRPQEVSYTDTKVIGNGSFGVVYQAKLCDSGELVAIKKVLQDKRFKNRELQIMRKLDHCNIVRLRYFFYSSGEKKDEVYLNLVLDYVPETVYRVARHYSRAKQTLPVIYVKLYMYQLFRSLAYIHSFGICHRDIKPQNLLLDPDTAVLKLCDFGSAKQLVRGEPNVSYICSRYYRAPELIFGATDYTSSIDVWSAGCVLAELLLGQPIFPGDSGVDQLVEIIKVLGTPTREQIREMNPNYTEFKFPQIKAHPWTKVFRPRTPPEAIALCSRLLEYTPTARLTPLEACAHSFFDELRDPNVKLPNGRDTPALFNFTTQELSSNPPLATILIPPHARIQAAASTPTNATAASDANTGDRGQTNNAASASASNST

SMILES	IC50 [1]	IC50 [2]
CC[C@@]1(c2cccc(C(F)(F)F)c2)C2=CN=NC2NC2=C1C(=O)N(c1cnsc1)CC2 (some centres undefined) [US20250313563, Compound 951742]	1 to 5 µM	0.1 to 1 µM
CC1(C)CC(=O)C2=C(C1)NC1=C(CN=N1)[C@@]21CCN(S(=O)(=O)c2ccccc2)C1 [US20250313563, Compound 951788]	< 0.1 µM and 1 to 5 µM	< 0.1 µM and 0.1 to 1 µM
COc1cccc(S(=O)(=O)N2CC[C@@]3(C2)C2=C(N=NC2)NC2=C3C(=O)CC(C)(C)C2)c1 [US20250313563, Compound 951789]	0.1 to 1 µM	0.1 to 1 µM
COc1cccc(S(=O)(=O)N2CC[C@]3(C2)C2=C(N=NC2)NC2=C3C(=O)CC(C)(C)C2)c1 [US20250313563, Compound 951790]	< 0.1 µM	< 0.1 µM
CC[C@@]1(c2cccc(-c3cnn(CC4CCOC4)c3)c2)C2=CN=NC2NC2=C1C(=O)NC(C)(C)C2 (some centres undefined) [US20250313563, Compound 951836]	1 to 5 µM	0.1 to 1 µM
CC[C@@]1(c2cccc(-c3cnn(-c4ccccc4)c3C(F)(F)F)c2)C2=CN=NC2NC2=C1C(=O)NC(C)(C)C2 (some centres undefined) [US20250313563, Compound 951837]	0.1 to 1 µM	0.1 to 1 µM
CC[C@@]1(c2cccc(-c3cnn(Cc4ccc(OC)cc4)c3)c2)C2=CN=NC2NC2=C1C(=O)NC(C)(C)C2 (some centres undefined) [US20250313563, Compound 951838]	1 to 5 µM	0.1 to 1 µM
CC1(C)CC(=O)C2=C(NC3=C(CN=N3)C23CCN(S(=O)(=O)c2ccccc2C(F)F)CC3)[C@H]1F [US20250313563, Compound 951839]	0.1 to 1 µM	< 0.1 µM
CC[C@@]1(c2cccc(-c3cnn(Cc4cccc(F)c4F)c3)c2)C2=CN=NC2NC2=C1C(=O)NC(C)(C)C2 (some centres undefined) [US20250313563, Compound 951840]	0.1 to 1 µM	< 0.1 µM
CC[C@@]1(c2cccc(-c3cc(C(C)C)nn3C)c2)C2=CN=NC2NC2=C1C(=O)NC(C)(C)C2 (some centres undefined) [US20250313563, Compound 951842]	1 to 5 µM	0.1 to 1 µM
CC[C@@]1(c2cccc(-c3cc(C(C)(C)C)nn3C)c2)C2=CN=NC2NC2=C1C(=O)NC(C)(C)C2 (some centres undefined) [US20250313563, Compound 951843]	> 5 µM	0.1 to 1 µM
CC[C@@]1(c2cccc(-c3c(C#N)c(C)nn3C)c2)C2=CN=NC2NC2=C1C(=O)NC(C)(C)C2 (some centres undefined) [US20250313563, Compound 951844]	0.1 to 1 µM	< 0.1 µM
CC[C@]1(c2cccc(-c3cc(C)nn3-c3ccccc3)c2)C2=CN=NC2NC2=C1C(=O)NC(C)(C)C2 (some centres undefined) [US20250313563, Compound 951845]	0.1 to 1 µM	0.1 to 1 µM
CC1(C)CC(=O)C2=C(NC3=C(CN=N3)C23CCN(S(=O)(=O)c2ccccc2C(F)F)CC3)[C@@H]1F [US20250313563, Compound 951846]	0.1 to 1 µM	< 0.1 µM
CC[C@@]1(c2cccc(-c3cnn(Cc4cccc(C(F)(F)F)c4)c3)c2)C2=CN=NC2NC2=C1C(=O)NC(C)(C)C2 (some centres undefined) [US20250313563, Compound 951848]	0.1 to 1 µM	< 0.1 µM
CC1(C)CC(=O)C2=C(C1)NC1=C(CN=N1)[C@]21CCN(S(=O)(=O)c2cccc(F)c2)C1 [US20250313563, Compound 951861]	0.1 to 1 µM	0.1 to 1 µM
CC1(C)CC(=O)C2=C(C1)NC1=C(CN=N1)[C@@]21CCN(S(=O)(=O)c2cccc(F)c2)C1 [US20250313563, Compound 951862]	< 0.1 µM	< 0.1 µM
Cc1cccc(S(=O)(=O)N2CC[C@@]3(C2)C2=C(N=NC2)NC2=C3C(=O)CC(C)(C)C2)c1 [US20250313563, Compound 951863]	0.1 to 1 µM	0.1 to 1 µM
Cc1cccc(S(=O)(=O)N2CC[C@]3(C2)C2=C(N=NC2)NC2=C3C(=O)CC(C)(C)C2)c1 [US20250313563, Compound 951864]	< 0.1 µM and 1 to 5 µM	< 0.1 µM

SMILES	IC50 [1]	IC50 [2]
CC[C@]1(c2cccc(C(F)(F)F)c2)C2=CN=NC2NC2=C1C(=O)N(c1cc(C)n(C)n1)CC2 (some centres undefined) [US20250313563, Compound 951939]	0.1 to 1 µM	< 0.1 µM
CC[C@@]1(c2cccc(Oc3ncccn3)c2)C2=C(CC(C)(C)NC2=O)NC2N=NC(F)=C21 (some centres undefined) [US20250313563, Compound 951944]	> 5 µM	1 to 5 µM
CC[C@]1(c2cccc(C(F)F)c2)C2=C(CC(C)(C)NC2=O)NC2N=NC(C(F)(F)F)=C21 (some centres undefined) [US20250313563, Compound 951946]	1 to 5 µM	0.1 to 1 µM
CC[C@]1(c2cccc(Oc3ncccn3)c2)C2=C(CC(C)(C)NC2=O)NC2N=NC(F)=C21 (some centres undefined) [US20250313563, Compound 951949]	0.1 to 1 µM and > 5 µM	< 0.1 µM and 0.1 to 1 µM
CC[C@@]1(c2cccc(C(F)(F)F)c2)C2=CN=NC2NC2=C1C(=O)N(c1cc(C)n(C)n1)CC2 (some centres undefined) [US20250313563, Compound 951954]	> 5 µM	> 5 µM
CC[C@@]1(c2cccc(-c3cnn(-c4ccncn4)c3)c2)C2=CN=NC2NC2=C1C(=O)NC(C)(C)C2 (some centres undefined) [US20250313563, Compound 952016]	1 to 5 µM	0.1 to 1 µM
CC[C@@]1(c2cccc(-c3cnn(CCc4ccccc4)c3)c2)C2=CN=NC2NC2=C1C(=O)NC(C)(C)C2 (some centres undefined) [US20250313563, Compound 952017]	0.1 to 1 µM	< 0.1 µM
CC[C@@]1(c2cccc(-c3cc(C(F)(F)F)nn3C)c2)C2=CN=NC2NC2=C1C(=O)NC(C)(C)C2 (some centres undefined) [US20250313563, Compound 952018]	1 to 5 µM	0.1 to 1 µM
CC[C@@]1(c2cccc(-c3cnn4c3OCCC4)c2)C2=CN=NC2NC2=C1C(=O)NC(C)(C)C2 (some centres undefined) [US20250313563, Compound 952019]	0.1 to 1 µM	< 0.1 µM
CC[C@@]1(c2cccc(-c3cnn(CCN4CCCC4)c3)c2)C2=CN=NC2NC2=C1C(=O)NC(C)(C)C2 (some centres undefined) [US20250313563, Compound 952022]	1 to 5 µM	0.1 to 1 µM
CC[C@@]1(c2cccc(-c3cc(C4CCCC4)nn3C)c2)C2=CN=NC2NC2=C1C(=O)NC(C)(C)C2 (some centres undefined) [US20250313563, Compound 952023]	1 to 5 µM	0.1 to 1 µM
CC[C@@]1(c2cccc(-c3cnn(-c4cccnc4)c3)c2)C2=CN=NC2NC2=C1C(=O)NC(C)(C)C2 (some centres undefined) [US20250313563, Compound 952024]	> 5 µM	0.1 to 1 µM
CC[C@@]1(c2cccc(-c3ccncc3C(F)(F)F)c2)C2=CN=NC2NC2=C1C(=O)NC(C)(C)C2 (some centres undefined) [US20250313563, Compound 952025]	< 0.1 µM and 1 to 5 µM	< 0.1 µM
CC[C@@]1(c2cccc(-c3cnn(-c4cnccn4)c3)c2)C2=CN=NC2NC2=C1C(=O)NC(C)(C)C2 (some centres undefined) [US20250313563, Compound 952207]	1 to 5 µM	0.1 to 1 µM
CC[C@@]1(c2cccc(-c3cnn(CC(=O)N(C)C)c3)c2)C2=CN=NC2NC2=C1C(=O)NC(C)(C)C2 (some centres undefined) [US20250313563, Compound 952208]	> 5 µM	0.1 to 1 µM
CC[C@@]1(c2cccc(-c3c([N+](=O)O)c(C)nn3C)c2)C2=CN=NC2NC2=C1C(=O)NC(C)(C)C2 (some centres undefined) [US20250313563, Compound 952209]	< 0.1 µM	< 0.1 µM
CC[C@]1(c2cccc(N(C)c3ncccn3)c2)C2=C(N=NC2)NC2=C1C(=O)C(C)(C)C2 [US20250313563, Compound 952212]	0.1 to 1 µM and > 5 µM	< 0.1 µM and 0.1 to 1 µM
CC[C@@]1(c2cccc(C(F)(F)F)c2)C2=CN=NC2NC2=C1C(=O)N(c1cnn(C)c1C)CC2 (some centres undefined) [US20250313563, Compound 952257]	0.1 to 1 µM	< 0.1 µM
